Source: patent US20250197372A1 (priority 2020, published 2025)
pIC50: −log10 of the molar value. Read-outs that look alike come from different tables or passages of the source.

Key:
Type in all cases: biochemical
[1] = target: T1, recombinant alpha-glucosidase II (murine full-length glucosidase II, alpha and beta subunits, Glu 2) (Mus musculus, UniProt Q8BHN3); experiment: Alpha-glucosidase II assay (4-methylumbelliferyl-alpha-D-pyranoside substrate, fluorescence)
T1 construct: made in house; host or cells: HEK-293T cells transduced with BacMam viruses (75% alpha, 25% beta); protein harvested from culture supernatant

[2] = target: recombinant human GAA (acid alpha-glucosidase) (Homo sapiens, UniProt P10253); experiment: Acid alpha-glucosidase (GAA) assay (4-methylumbelliferyl-alpha-D-pyranoside substrate, fluorescence)
Description: Acid alpha-glucosidase (GAA): To analyze inhibitory effects of a test compound, commercially available recombinant human GAA was incubated with multiple dilutions of test compound for 60 minutes at 37° C. 4-methylumbelliferyl-alpha-D-pyranoside was then introduced to the mixture as the substrate. 1,4-methyllumbelliferone is generated, and after an incubation for 20 minutes at 37° C., the reaction was stopped with the stop solution (0.5M glycine 0.3M NaOH pH 10). 1,4-methyllumbelliferone is detected by fluorescence (excitation at 365 nm, emission at 440 nm). Relative fluorescence compared to untreated enzymatic activity and test compound concentration is plotted as a function of percent inhibition. The IC50 is determined using a 4-PL curve fit as the measure of relative inhibitory activity of each test compound (see Table 3).

[3] = target: rat maltase (partially purified alpha-glucosidase from intestinal rat powder); experiment: Intestinal alpha-glucosidase assay, maltose substrate (Glucose GO Kit)
Description: Intestinal alpha-glucosidases (rat maltase and sucrase): Intestinal alpha-glucosidases act upon 1,4-alpha-glucoside bonds, breaking down disaccharides to glucose. To perform this assay, partially purified alpha-glucosidase from intestinal rat powder was incubated for 60 minutes at 37° C. with multiple dilutions of test compounds. Maltose or Sucrose respectively was then introduced as substrate to the mixture and incubated for 30 minutes at 37° C. The reaction was stopped by a 5-minute incubation at 90° C. and the resultant glucose production is detected using Sigma's Glucose GO Kit. Percent inhibition was then plotted as a function of concentration for each test compound. The IC50 was determined using a 4-PL curve fit and serves as the measure of relative inhibition of each test compound (see Table 3).

[4] = Glucosidase 2, read-out: Glu2 IC50

T1 sequence (O08795 15-521): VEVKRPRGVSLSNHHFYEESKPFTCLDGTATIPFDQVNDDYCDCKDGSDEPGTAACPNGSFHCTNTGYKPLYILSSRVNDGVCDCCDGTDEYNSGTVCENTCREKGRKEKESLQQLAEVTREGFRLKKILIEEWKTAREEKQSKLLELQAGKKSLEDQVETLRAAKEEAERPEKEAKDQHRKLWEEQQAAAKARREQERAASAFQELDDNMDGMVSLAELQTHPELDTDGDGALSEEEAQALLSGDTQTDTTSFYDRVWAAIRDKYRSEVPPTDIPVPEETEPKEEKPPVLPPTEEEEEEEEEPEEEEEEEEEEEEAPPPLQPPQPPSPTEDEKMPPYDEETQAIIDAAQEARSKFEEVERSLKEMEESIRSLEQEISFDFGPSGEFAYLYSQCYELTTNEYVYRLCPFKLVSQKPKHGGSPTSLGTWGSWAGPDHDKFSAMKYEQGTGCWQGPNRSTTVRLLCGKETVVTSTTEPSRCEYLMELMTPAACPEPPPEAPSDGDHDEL
T1 sequence (Q8BHN3 33-944): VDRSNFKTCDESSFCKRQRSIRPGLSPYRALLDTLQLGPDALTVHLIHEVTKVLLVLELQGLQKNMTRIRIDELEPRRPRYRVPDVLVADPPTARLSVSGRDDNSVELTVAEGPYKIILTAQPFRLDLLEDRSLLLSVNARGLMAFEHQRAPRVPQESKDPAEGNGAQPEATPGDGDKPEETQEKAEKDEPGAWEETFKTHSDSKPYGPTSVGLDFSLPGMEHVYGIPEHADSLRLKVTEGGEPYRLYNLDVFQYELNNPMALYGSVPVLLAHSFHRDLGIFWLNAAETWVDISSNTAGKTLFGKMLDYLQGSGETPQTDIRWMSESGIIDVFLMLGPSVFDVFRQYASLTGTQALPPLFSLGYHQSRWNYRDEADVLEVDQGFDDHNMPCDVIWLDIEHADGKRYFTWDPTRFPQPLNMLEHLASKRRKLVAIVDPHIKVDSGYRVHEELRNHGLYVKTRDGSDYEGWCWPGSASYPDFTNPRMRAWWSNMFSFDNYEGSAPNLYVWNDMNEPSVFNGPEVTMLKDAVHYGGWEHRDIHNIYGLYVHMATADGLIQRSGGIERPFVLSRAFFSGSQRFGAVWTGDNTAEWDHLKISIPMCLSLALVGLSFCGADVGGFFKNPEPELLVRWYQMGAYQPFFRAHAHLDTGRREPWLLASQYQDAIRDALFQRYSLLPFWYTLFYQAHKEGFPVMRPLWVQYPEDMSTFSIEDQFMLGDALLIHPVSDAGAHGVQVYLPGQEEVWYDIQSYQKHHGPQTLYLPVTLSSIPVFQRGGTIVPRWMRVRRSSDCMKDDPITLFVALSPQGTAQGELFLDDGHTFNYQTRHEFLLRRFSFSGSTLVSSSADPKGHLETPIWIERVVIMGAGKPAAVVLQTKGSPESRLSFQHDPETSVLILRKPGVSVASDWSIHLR

SMILES	pIC50 [1]	pIC50 [2]	pIC50 [3]	pIC50 [1, 4]
O=[N+]([O-])c1cc(N2C3CCC2COC3)ccc1NCc1ccc(CN2CC(O)C(O)C(O)C2CO)cc1 (stereo in doubt) [Compound 1018, (2S,3S,4S,5R)-2-(hydroxymethyl)-1-({4-[({2-nitro-4-[(1R,5S)-3-oxa-8-azabicyclo[3.2.1]octan-8-yl]phenyl}amino)methyl]phenyl}methyl) piperidine-3,4,5-triol]	> 9.00	7.36	> 9.00	
[N-]=[N+]=Nc1ccc(NCCc2ccc(CCN3C[C@@H](O)[C@H](O)[C@@H](O)[C@@H]3CO)c3ccccc23)c([N+](=O)[O-])c1 (stereo in doubt) [Compound 1178, (2S,3S,4S,5R)-1-[2-(4-{2-[(4-azido-2-nitrophenyl)amino]ethyl}naphthalen-1-yl)ethyl]-2-(hydroxymethyl)piperidine-3,4,5-triol]		5.23	5.46	5.03
OC[C@@H]1[C@@H](O)[C@H](O)[C@@H](O)CN1CCCCCCNc1cc(-c2cccnn2)cc(C2CC2)c1 [Compound 1008, (2R,3R,4R,5S)-1-(6-{[3-cyclopropyl-5-(pyridazin-3-yl)phenyl]amino}hexyl)-2-(hydroxymethyl)piperidine-3,4,5-triol]		7.19	8.22	7.92
OC[C@@H]1[C@@H](O)[C@H](O)[C@@H](O)CN1CCCCCCNc1cc(-c2ncccn2)cc(C2CC2)c1 [Compound 1009, (2R,3R,4R,5S)-1-(6-{[3-cyclopropyl-5-(pyrimidin-2-yl)phenyl]amino}hexyl)-2-(hydroxymethyl)piperidine-3,4,5-triol]		7.21	8.15	7.77
OC[C@@H]1[C@@H](O)[C@H](O)[C@@H](O)CN1Cc1ccc(CNc2cc(C3CC3)cc(N3CCOCC3)c2)cc1 [Compound 1010, (2R,3R,4R,5S)-1-{[4-({[3-cyclopropyl-5-(morpholin-4-yl)phenyl]amino}methyl)phenyl]methyl}-2-(hydroxymethyl)piperidine-3,4,5-triol]		6.44	7.92	5.97
OC[C@@H]1[C@@H](O)[C@H](O)[C@@H](O)CN1Cc1ccc(CNc2cc(-c3cccnn3)cc(C3CC3)c2)cc1 [Compound 1012, (2R,3R,4R,5S)-1-{[4-({[3-cyclopropyl-5-(pyridazin-3-yl)phenyl]amino}methyl)phenyl]methyl}-2-(hydroxymethyl)piperidine-3,4,5-triol]		6.46	8.05	5.88
OC[C@@H]1[C@@H](O)[C@H](O)[C@@H](O)CN1Cc1ccc(CNc2cc(-c3ncccn3)cc(C3CC3)c2)cc1 [Compound 1013, (2R,3R,4R,5S)-1-{[4-({[3-cyclopropyl-5-(pyrimidin-2-yl)phenyl]amino}methyl)phenyl]methyl}-2-(hydroxymethyl)piperidine-3,4,5-triol]		6.60	8.30	6.82
C[C@@H]1CN(c2ccc(NCc3ccc(CN4C[C@H](O)[C@@H](O)[C@H](O)[C@H]4CO)cc3)c([N+](=O)[O-])c2)C[C@H](C)O1 [Compound 1014]		7.52	8.22	8.40
CS(=O)(=O)c1cc(Br)cc(NCc2cccc(CN3C[C@H](O)[C@@H](O)[C@H](O)[C@H]3CO)c2)c1 [Compound 1022, (2R,3R,4R,5S)-1-[(3-{[(3-bromo-5-methanesulfonylphenyl)amino]methyl}phenyl)methyl]-2-(hydroxymethyl)piperidine-3,4,5-triol]		6.10	7.55	5.10
Cc1cc(NCc2cccc(CN3C[C@H](O)[C@@H](O)[C@H](O)[C@H]3CO)c2)cc(-c2ncccn2)c1 [Compound 1035, (2R,3R,4R,5S)-2-(hydroxymethyl)-1-{[3-({[3-methyl-5-(pyrimidin-2-yl)phenyl]amino}methyl)phenyl]methyl}piperidine-3,4,5-triol]		5.29	7.31	4.18
CS(=O)(=O)c1cc(NCc2cccc(CN3C[C@H](O)[C@@H](O)[C@H](O)[C@H]3CO)c2)cc(-c2cccnn2)c1 [Compound 1040, (2R,3R,4R,5S)-2-(hydroxymethyl)-1-{[3-({[3-methanesulfonyl-5-(pyridazin-3-yl)phenyl]amino}methyl)phenyl]methyl}piperidine-3,4,5-triol]	5.34	5.89	7.42	
CS(=O)(=O)c1cc(NCc2cccc(CN3C[C@H](O)[C@@H](O)[C@H](O)[C@H]3CO)c2)cc(-c2ncccn2)c1 [Compound 1041, (2R,3R,4R,5S)-2-(hydroxymethyl)-1-{[3-({[3-methanesulfonyl-5-(pyrimidin-2-yl)phenyl]amino}methyl)phenyl]methyl}piperidine-3,4,5-triol]		5.72	7.10	5.14
N#Cc1cc(NCc2cccc(CN3C[C@H](O)[C@@H](O)[C@H](O)[C@H]3CO)c2)cc(C2=COCCO2)c1 [Compound 1044, 3-(5,6-dihydro-1,4-dioxin-2-yl)-5-{[(3-{[(2R,3R,4R,5S)-3,4,5-trihydroxy-2-(hydroxymethyl)piperidin-1-yl]methyl}phenyl)methyl]amino}benzonitrile]		5.85	> 9.00	5.57
Cc1cc(NCc2ccc(CN3C[C@H](O)[C@@H](O)[C@H](O)[C@H]3CO)cc2)cc(-c2cccnn2)c1 [Compound 1052, (2R,3R,4R,5S)-2-(hydroxymethyl)-1-{[4-({[3-methyl-5-(pyridazin-3-yl)phenyl]amino}methyl)phenyl]methyl}piperidine-3,4,5-trio]		6.82	7.85	6.75
CS(=O)(=O)c1cc(NCc2ccc(CN3C[C@H](O)[C@@H](O)[C@H](O)[C@H]3CO)cc2)cc(-c2cccnn2)c1 [Compound 1058, (2R,3R,4R,5S)-2-(hydroxymethyl)-1-{[4-({[3-methanesulfonyl-5-(pyridazin-3-yl)phenyl]amino}methyl)phenyl]methyl}piperidine-3,4,5-triol]		7.11	8.10	6.94
O=[N+]([O-])c1cc(N2CCOCC2)ccc1NCc1cccc(CN2C[C@H](O)[C@@H](O)[C@H](O)[C@H]2CO)c1 [Compound 1067, (2R,3R,4R,5S)-2-(hydroxymethyl)-1-{[3-({[4-(morpholin-4-yl)-2-nitrophenyl]amino}methyl)phenyl]methyl}piperidine-3,4,5-triol]		6.37	7.09	4.89
OC[C@@H]1[C@@H](O)[C@H](O)[C@@H](O)CN1Cc1ccc(CNc2ccc(N3CCOCC3)cc2)cc1 [Compound 1068]		6.41	7.31	5.80
OC[C@@H]1[C@@H](O)[C@H](O)[C@@H](O)CN1CCc1ccc(CCNc2cc(Cl)cc(-c3ncon3)c2)cc1 [Compound 1113, (2R,3R,4R,5S)-1-{2-[4-(2-{[3-chloro-5-(1,2,4-oxadiazol-3-yl)phenyl]amino}ethyl)phenyl]ethyl}-2-(hydroxymethyl)piperidine-3,4,5-triol]	6.53	6.42	7.70	
CCCc1nc(-c2cc(Cl)cc(NCCc3ccc(CCN4C[C@H](O)[C@@H](O)[C@H](O)[C@H]4CO)cc3)c2)no1 [Compound 1123, (2R,3R,4R,5S)-1-{2-[4-(2-{[3-chloro-5-(5-propyl-1,2,4-oxadiazol-3-yl)phenyl]amino}ethyl)phenyl]ethyl}-2-(hydroxymethyl)piperidine-3,4,5-triol]		6.15	6.36	6.48
COC(OC)c1cc(NCCCCCCN2C[C@H](O)[C@@H](O)[C@H](O)[C@H]2CO)cc(-c2ncccn2)c1 [Compound 1124, (2R,3R,4R,5S)-1-(6-{[3-(dimethoxymethyl)-5-(pyrimidin-2-yl)phenyl]amino}hexyl)-2-(hydroxymethyl)piperidine-3,4,5-triol]		7.44	7.64	7.74
CC(=O)Nc1cc(NCCCCCCN2C[C@H](O)[C@@H](O)[C@H](O)[C@H]2CO)cc(-c2ncccn2)c1 [Compound 1125, N-[3-(pyrimidin-2-yl)-5-({6-[(2R,3R,4R,5S)-3,4,5-trihydroxy-2-(hydroxymethyl)piperidin-1-yl]hexyl}amino)phenyl]acetamide]		7.10	7.82	7.72
OC[C@@H]1[C@@H](O)[C@H](O)[C@@H](O)CN1CCc1ccc(CCNc2cc(Cl)cc(C3=CCOCC3)c2)cc1 [Compound 1160, (2R,3R,4R,5S)-1-{2-[4-(2-{[3-chloro-5-(3,6-dihydro-2H-pyran-4-yl)phenyl]amino}ethyl)phenyl]ethyl}-2-(hydroxymethyl)piperidine-3,4,5-triol]		7.62	7.12	
